Results taken from patent publication US20260325685A1, “Radiopharmaceutical Compositions Targeting Carbonic Anhydrase IX and Uses Thereof” (RayzeBio, Inc., priority 2023, published 2026).
Read-outs that look alike come from different tables or passages of the source.

How the values were obtained:
human CA-XII = target: T1, human CA-XII (Homo sapiens, UniProt O43570); assay: Surface Plasmon Resonance (SPR) binding kinetics to recombinant human CA-XII (Biacore 8K, single-cycle kinetics, 1:1 binding model)
T1 construct: purchased Creative BioMart CA12-261H
In short: (§1)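 At 25° C, compound was injected at nine concentrations from 100 to 0.39 nM (PBS-P+ pH 7.4, 1% DMSO) over streptavidin-captured recombinant human CA-IX or CA-XII (1200-1800 RU). Association 120 s, dissociation 1200 s, single-cycle format; association and dissociation constants from 1:1 kinetic fits.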

human CA-IX = target: T2, human CA-IX (Homo sapiens, UniProt Q16790); assay: Surface Plasmon Resonance (SPR) binding kinetics to recombinant human CA-IX (Biacore 8K, single-cycle kinetics, 1:1 binding model)
T2 construct: purchased Acro CA9-H82E3
In short: as §1

[1] = Chelated Metal: Lu-175, 25° C., pH 7.4, read-out: CAXII KD
[2] = Chelated Metal: Lu-175; SPR, 25° C., pH 7.4; read-out: CAIX KD
[3] = read-out: CAXII KD, Chelated Metal: Lu-175, 25° C., pH 7.4
[4] = read-out: CAIX KD; Chelated Metal: Lu-175; SPR, 25° C., pH 7.4
[5] = Chelated Metal: None, 25° C., pH 7.4, read-out: CAXII KD
[6] = Chelated Metal: None; SPR, 25° C., pH 7.4; read-out: CAIX KD
[7] = KD ratio CAXII/CAIX; Chelated Metal: None

T1 sequence (O43570 25-354): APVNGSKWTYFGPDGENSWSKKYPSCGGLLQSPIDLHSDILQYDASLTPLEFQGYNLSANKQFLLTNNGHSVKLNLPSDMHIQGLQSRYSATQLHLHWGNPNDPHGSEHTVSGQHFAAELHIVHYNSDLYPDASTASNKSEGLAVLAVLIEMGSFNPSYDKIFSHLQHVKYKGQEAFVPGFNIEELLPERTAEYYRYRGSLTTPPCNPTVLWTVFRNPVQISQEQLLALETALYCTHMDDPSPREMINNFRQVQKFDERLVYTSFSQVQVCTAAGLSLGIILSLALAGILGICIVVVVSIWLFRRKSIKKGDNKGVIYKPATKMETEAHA

SMILES | Kd (human CA-XII; [1]) [nM] | Kd (human CA-IX; [2]) [nM] | Kd (human CA-XII; [3]) [nM] | Kd (human CA-IX; [4]) [nM] | other results
CC(CCCC(=O)N1CCC(C(N)=O)(C(=O)NCC(=O)NC2(C(=O)NCCn3cc(C45CC(C(=O)Nc6nnc(S(N)(=O)=O)s6)(C4)C5)nn3)CCN(C(=O)CCOCCOCCOCCOCCOCCOCCOCCOCCNC(=O)CN3CCN(CC(=O)O)CCN(CC(=O)O)CCN(CC(=O)O)CC3)CC2)CC1)(c1ccc(O)cc1)c1ccc(O)cc1.[Lu+3] [Compound 129.5] | > 10 | < 1 |  |  | 
CC(CCCC(=O)N1CCC(C(N)=O)(C(=O)NCC(=O)NC2(C(=O)NCCn3cc(C45CC(C(=O)Nc6nnc(S(N)(=O)=O)s6)(C4)C5)nn3)CCN(C(=O)CN3CC4(C3)CN(C(=O)CN3CCN(CC(=O)O)CCN(CC(=O)O)CCN(CC(=O)O)CC3)C4)CC2)CC1)(c1ccc(O)cc1)c1ccc(O)cc1.[Lu+3] [Compound 129.7] | > 10 | < 1 |  |  | 
CC(CCC(=O)N[C@@H](CC(=O)N[C@@H](CC(=O)N1CCN(C(=O)CCOCCOCCOCCOCCOCCOCCOCCOCCNC(=O)CN2CCN(CC(=O)O)CCN(CC(=O)O)CCN(CC(=O)O)CC2)C[C@H]1C(=O)NCCn1cc(C23CC(C(=O)Nc4nnc(S(N)(=O)=O)s4)(C2)C3)nn1)C(=O)O)C(=O)O)(c1ccc(O)cc1)c1ccc(O)cc1.[Lu+3] [Compound 129] |  |  | > 10 | 1 to 2.5 | 
CC(CCC(=O)N[C@@H](CC(=O)N[C@@H](CC(=O)N1CCN(C(=S)Nc2ccc3c(c2)OCCN(Cc2cccc(C(=O)O)n2)CCOCCOCCN(Cc2cccc(C(=O)O)n2)CCO3)C[C@H]1C(=O)NCCn1cc(C23CC(C(=O)Nc4nnc(S(N)(=O)=O)s4)(C2)C3)nn1)C(=O)O)C(=O)O)(c1ccc(O)cc1)c1ccc(O)cc1 [Compound 130] |  |  |  |  | Kd (human CA-XII; [5]): 2.5 to 10 nM; Kd (human CA-IX; [6]): < 1 nM; Ratio (CAXII/CAIX) (human CA-IX; [7]): *** (10 < *** ≤ 50)
CC(CCC(=O)N[C@@H](CC(=O)N[C@@H](CC(=O)N1CCN(C(=O)CCOCCOCCOCCOCCN(CCOCCOCCOCCOCCC(=O)N2CCN(C(=O)C[C@H](NC(=O)C[C@H](NC(=O)CCC(C)(c3ccc(O)cc3)c3ccc(O)cc3)C(=O)O)C(=O)O)[C@H](C(=O)NCCn3cc(C45CC(C(=O)Nc6nnc(S(N)(=O)=O)s6)(C4)C5)nn3)C2)C(=O)CN2CCN(CC(=O)O)CCN(CC(=O)O)CCN(CC(=O)O)CC2)C[C@H]1C(=O)NCCn1cc(C23CC(C(=O)Nc4nnc(S(N)(=O)=O)s4)(C2)C3)nn1)C(=O)O)C(=O)O)(c1ccc(O)cc1)c1ccc(O)cc1 [Compound 131.1] |  |  |  |  | Kd (human CA-XII; [5]): < 1 nM; Kd (human CA-IX; [6]): < 1 nM; Ratio (CAXII/CAIX) (human CA-IX; [7]): * (1 < * < 5)
CC(CCC(=O)N[C@@H](CC(=O)N[C@@H](CC(=O)N1CCN(C(=O)CCOCCOCCOCCOCCN(CCOCCOCCOCCOCCC(=O)N2CCN(C(=O)C[C@H](NC(=O)C[C@H](NC(=O)CCC(C)(c3ccc(O)cc3)c3ccc(O)cc3)C(=O)O)C(=O)O)[C@H](C(=O)NCCn3cc(C45CC(C(=O)Nc6nnc(S(N)(=O)=O)s6)(C4)C5)nn3)C2)C(=O)CNC(=O)CN2CCN(CC(=O)O)CCN(CC(=O)O)CCN(CC(=O)O)CC2)C[C@H]1C(=O)NCCn1cc(C23CC(C(=O)Nc4nnc(S(N)(=O)=O)s4)(C2)C3)nn1)C(=O)O)C(=O)O)(c1ccc(O)cc1)c1ccc(O)cc1 [Compound 131.2] |  |  |  |  | Kd (human CA-XII; [5]): < 1 nM; Kd (human CA-IX; [6]): < 1 nM
CC(CCCC(=O)N1CCOC[C@H]1C(=O)N[C@@H](CC(=O)N1CCN(C(=O)CCOCCOCCOCCOCCN(CCOCCOCCOCCOCCC(=O)N2CCN(C(=O)C[C@H](NC(=O)[C@@H]3COCCN3C(=O)CCCC(C)(c3ccc(O)cc3)c3ccc(O)cc3)C(=O)O)[C@@H](C(=O)NCCn3cc(C45CC(C(=O)Nc6nnc(S(N)(=O)=O)s6)(C4)C5)nn3)C2)C(=O)CNC(=O)CN2CCN(CC(=O)O)CCN(CC(=O)O)CCN(CC(=O)O)CC2)C[C@@H]1C(=O)NCCn1cc(C23CC(C(=O)Nc4nnc(S(N)(=O)=O)s4)(C2)C3)nn1)C(=O)O)(c1ccc(O)cc1)c1ccc(O)cc1.[Lu+3] [Compound 131.3] | < 1 | < 1 |  |  | 
CC(CCC(=O)N[C@@H](CC(=O)N[C@@H](CC(=O)N1CCN(C(=O)CCC(CCC(=O)N2CCN(C(=O)C[C@H](NC(=O)C[C@H](NC(=O)CCC(C)(c3ccc(O)cc3)c3ccc(O)cc3)C(=O)O)C(=O)O)[C@H](C(=O)NCCn3cc(C45CC(C(=O)Nc6nnc(S(N)(=O)=O)s6)(C4)C5)nn3)C2)NC(=O)CN2CCN(CC(=O)O)CCN(CC(=O)O)CCN(CC(=O)O)CC2)C[C@H]1C(=O)NCCn1cc(C23CC(C(=O)Nc4nnc(S(N)(=O)=O)s4)(C2)C3)nn1)C(=O)O)C(=O)O)(c1ccc(O)cc1)c1ccc(O)cc1 (stereo partly shown) [Compound 131.4] |  |  |  |  | Kd (human CA-XII; [5]): < 1 nM; Kd (human CA-IX; [6]): < 1 nM; Ratio (CAXII/CAIX) (human CA-IX; [7]): * (1 < * < 5)
N[C@@H](CC(=O)N[C@@H](CC(=O)N1CCN(C(=O)CCOCCOCCOCCOCCN(CCOCCOCCOCCOCCC(=O)N2CCN(C(=O)C[C@H](NC(=O)C[C@H](N)C(=O)O)C(=O)O)[C@H](C(=O)NCCn3cc(C45CC(C(=O)Nc6nnc(S(N)(=O)=O)s6)(C4)C5)nn3)C2)C(=O)CNC(=O)CN2CCN(CC(=O)O)CCN(CC(=O)O)CCN(CC(=O)O)CC2)C[C@H]1C(=O)NCCn1cc(C23CC(C(=O)Nc4nnc(S(N)(=O)=O)s4)(C2)C3)nn1)C(=O)O)C(=O)O.[Lu+3] [Compound 131.5] | < 1 | < 1 |  |  | 
CC(CCCC(=O)N1CCOC[C@H]1C(=O)N[C@@H](CC(=O)N1CCN(C(=O)CCOCCOCCOCCOCCN(CCOCCOCCOCCOCCC(=O)N2CCN(C(=O)C[C@H](NC(=O)[C@@H]3COCCN3C(=O)CCCC(C)(c3ccc(O)cc3)c3ccc(O)cc3)C(N)=O)[C@@H](C(=O)NCCn3cc(C45CC(C(=O)Nc6nnc(S(N)(=O)=O)s6)(C4)C5)nn3)C2)C(=O)CNC(=O)CN2CCN(CC(=O)O)CCN(CC(=O)O)CCN(CC(=O)O)CC2)C[C@@H]1C(=O)NCCn1cc(C23CC(C(=O)Nc4nnc(S(N)(=O)=O)s4)(C2)C3)nn1)C(N)=O)(c1ccc(O)cc1)c1ccc(O)cc1.[Lu+3] [Compound 131.6] | 1 to 2.5 | < 1 |  |  | 
CC(CCCC(=O)N1CCC(C(N)=O)(C(=O)NCC(=O)NC2CCN(C(=O)CCOCCOCCOCCOCCN(CCOCCOCCOCCOCCC(=O)N3CCC(NC(=O)CNC(=O)C4(C(N)=O)CCN(C(=O)CCCC(C)(c5ccc(O)cc5)c5ccc(O)cc5)CC4)C(C(=O)NCCn4cc(C56CC(C(=O)Nc7nnc(S(N)(=O)=O)s7)(C5)C6)nn4)C3)C(=O)CNC(=O)CN3CCN(CC(=O)O)CCN(CC(=O)O)CCN(CC(=O)O)CC3)CC2C(=O)NCCn2cc(C34CC(C(=O)Nc5nnc(S(N)(=O)=O)s5)(C3)C4)nn2)CC1)(c1ccc(O)cc1)c1ccc(O)cc1.[Lu+3] (stereo not shown) [Compound 131.7] | 1 to 2.5 | < 1 |  |  | 
CC(CCCC(=O)N1CCC(C(N)=O)(C(=O)NCC(=O)N2CCN(C(=O)CCOCCOCCOCCOCCN(CCOCCOCCOCCOCCC(=O)N3CCN(C(=O)CNC(=O)C4(C(N)=O)CCN(C(=O)CCCC(C)(c5ccc(O)cc5)c5ccc(O)cc5)CC4)[C@H](C(=O)NCCn4cc(C56CC(C(=O)Nc7nnc(S(N)(=O)=O)s7)(C5)C6)nn4)C3)C(=O)CNC(=O)CN3CCN(CC(=O)O)CCN(CC(=O)O)CCN(CC(=O)O)CC3)C[C@H]2C(=O)NCCn2cc(C34CC(C(=O)Nc5nnc(S(N)(=O)=O)s5)(C3)C4)nn2)CC1)(c1ccc(O)cc1)c1ccc(O)cc1.[Lu+3] [Compound 131] |  |  | 2.5 to 10 | < 1 | 
NS(=O)(=O)c1nnc(NC(=O)C23CCC(c4cn(CCNC(=O)[C@@H]5CN(C(=O)CCCc6ccc(O)cc6)CCN5C(=O)CC[C@H](NC(=O)C[C@H](NC(=O)CN5CCN(CC(=O)O)CCN(CC(=O)O)CCN(CC(=O)O)CC5)C(=O)O)C(=O)O)nn4)(CC2)CC3)s1.[Lu+3] [Compound 132] |  |  | 1 to 2.5 | < 1 | 
CC(C)(CCCC(=O)N1CCC(C(N)=O)(C(=O)NCC(=O)N2CCN(C(=O)CN3CCN(CC(=O)O)CCN(CC(=O)O)CCN(CC(=O)O)CC3)C[C@H]2C(=O)NCCn2cc(C34CC(C(=O)Nc5nnc(S(N)(=O)=O)s5)(C3)C4)nn2)CC1)c1ccc(O)cc1.[Lu+3] [Compound 133] |  |  | > 10 | < 1 | 
CC(CCCC(=O)N1CCC(C(N)=O)(C(=O)NCC(=O)NC2(C(=O)N[C@@H](Cn3cc(C45CC(C(=O)Nc6nnc(S(N)(=O)=O)s6)(C4)C5)nn3)C(=O)O)CCN(C(=O)CN3CCN(CC(=O)O)CCN(CC(=O)O)CCN(CC(=O)O)CC3)CC2)CC1)(c1ccc(O)cc1)c1ccc(O)cc1.[Lu+3] [Compound 134] |  |  | > 10 | < 1 | 
CC(CCCC(=O)N1CCC(C(N)=O)(C(=O)NCC(=O)NC2(C(=O)NCCn3nnc(C45CC(C(=O)Nc6nnc(S(N)(=O)=O)s6)(C4)C5)c3C(=O)O)CCN(C(=O)CN3CCN(CC(=O)O)CCN(CC(=O)O)CCN(CC(=O)O)CC3)CC2)CC1)(c1ccc(O)cc1)c1ccc(O)cc1.[Lu+3] [Compound 135] |  |  | > 10 | < 1 | 
CC(CCCC(=O)N1CCC(C(N)=O)(C(=O)NCC(=O)NC2(C(=O)NCCn3nnc(C45CC(C(=O)Nc6nnc(S(N)(=O)=O)s6)(C4)C5)c3C(N)=O)CCN(C(=O)CN3CCN(CC(=O)O)CCN(CC(=O)O)CCN(CC(=O)O)CC3)CC2)CC1)(c1ccc(O)cc1)c1ccc(O)cc1.[Lu+3] [Compound 136] |  |  | > 10 | < 1 | 
